In data set [1] the test system is H460 cells. Description: 3392 and bleomycin combination, CCK-8, SynergyFinder. In kind it is cell-based, Human. The procedure: (§1) Cell metabolism/viability was assessed using a mitochondrial metabolism assay (CCK-8) kit (Cell Counting Kit-8, Cat: CK04, Dojindo Laboratories, Rockville, MD, USA) as previously described. Briefly, cells were seeded at a density of 3 × 10^3 cells per well in 96-well plates and allowed to adhere and stretch for 18–24 h prior to treatment. Cells were pre-treated with Ku-DBi for 24 h before bleomycin treatments. Subsequently, cells were incubated for an additional 48 h at 37 °C after which CCK-8 assay was performed. The absorbance of the formed formazan product in each well was measured at 450 nm and compared to vehicle-treated controls to determine percent cell viability. The results represent the average and SEM of triplicate determinations.

For data set [2], the system named is MDA-MB-468. Description: Bleomycin-sensitization activity, CCK-8. In kind it is cell-based, Human. The note with it: BRCA1 wild-type MDA-MB-468. The procedure:
as §1

In data set [3] the test system is MDA-MB-436. As to the kind of experiment: Bleomycin-sensitization activity, CCK-8. In kind it is cell-based, Human. The note with it: BRCA1 mutant MDA-MB-436. The procedure:
as §1

Data set [4] has as its target T1, Ku 70/80 (Homo sapiens, UniProt P12956+P13010).
T1 construct: made in house; host or cells: baculovirus-infected Sf9 cells
As to the kind of experiment: EMSA Ku–DNA binding inhibition. The note with it: 32P-labeled 30-bp duplex DNA, purified Ku 70/80, mean and SD of triplicate. The procedure: The inhibitory activity of Ku-DBis on Ku-DNA binding was evaluated in vitro using Electrophoretic mobility shift assays (EMSA) with a [^32P]-labeled 30-bp duplex DNA and purified Ku 70/80. Kinase assays were performed to measure the DNA-dependent transfer of [^32P] from γ-[^32P] ATP to a synthetic p53-based peptide substrate, both as previously described. Both EMSA and DNA-PK inhibitor titration assays were performed in triplicate. Data were fit to standard binding curves using GraphPad Prism to determine IC50 values.
A general note: A gel shift assay detects complexes by their altered migration in electrophoresis.

Data set [5] deals with Ku80-null MEF. Description: Bleomycin sensitization, CCK-8. The note with it: 20 μM 3392 for 24 h, then bleomycin 48 h. In kind it is cell-based. The procedure:
(§2) page 20: Supplementary Figure S4. Ku-DBi 3392 sensitivity to bleomycin in wild-type (WT) and Ku 80-null MEFs cells. MEF cells were pre-treated with vehicle or 20 μM 3392 for 24 h and then increasing concentrations of bleomycin for 48 h after which cell viability was determined by CCK-8. Data are presented as the mean and SEM of triplicate determinations. (1 picture or pasted object on this page, not shown here)

Data set [6] relates to Ku wild-type MEFs. As to the kind of experiment: Bleomycin sensitization, CCK-8. Format: cell-based. As to conditions: 20 μM 3392 for 24 h, then bleomycin 48 h. The procedure: as §2
For data set [7], the system named is A549 cells. Description: Clonogenic survival in combination with IR. The note with it: A549, 2 Gy. In kind it is cell-based, Human. The procedure: (§3) NSCLC cells were seeded at 2 × 10^5 cells per well into 24-well plates and grown as monolayers at 37 °C and 5% CO2 in media one day before Ku-DBi or vehicle treatments. After 2 h, cells were placed on ice for 10 min and kept on ice during irradiation with either 2 or 5 Gy of 160 kVp X-rays using a Precision X-ray machine (North Branford, CT, USA) at a dose rate of 0.687 Gy/min. Radiation dosimetry measurements were performed using a Farmer-type ionization chamber (PTW Model N30013, Freiburg, Germany) in conjunction with a Keithley electrometer (Model K602, Cleveland, OH, USA). After irradiation, cells were incubated for 1 h at 37 °C, trypsinized, replated in 100 mm dishes, and incubated at 37 °C in 5% CO2. After 11 days, cells were carefully washed in PBS before fixing and staining in 0.5% crystal violet (Cat: C581-100, Fisher Scientific, Hampton, NH, USA) with 6% glutaraldehyde (Glutaraldehyde solution, 25%. Cat: O2957-1, Fisher Scientific) in PBS for 1 h at RT. The staining solution was removed, and cells were washed with water and air-dried. For clonogenic survival analysis, colonies containing more than 50 cells were manually counted and normalized to vehicle control conditions to determine surviving fractions.

Data set [8] concerns H23 cells. Description: Clonogenic survival in combination with IR. In kind it is cell-based, Human. The procedure: as §3
In data set [9] the test system is H460 NSCLC cells. As to the kind of experiment: Cellular uptake by HPLC. In kind it is in vitro ADME, Human. As to conditions: H460, 10 µM. The procedure: Cellular uptake was evaluated in two NSCLC cell lines, H460 and A549. Cells were seeded into 6-well plates at a density of 1 × 10^6 cells per well and cultured as monolayers at 37 °C and 5% CO2 for 18–24 h. Ku-DBis were added to the media at a concentration of 10 µM and incubation continued for the times indicated. Media were removed, cells were washed 3 times with PBS, 1 mL of methanol was added to each well, and cells were agitated overnight at 4 °C. The methanol was collected, and wells were washed with an additional 1 mL of methanol that was then pooled with the original. The methanol extracts were then dried under vacuum, resuspended in methanol, and analyzed by HPLC using a 250 × 4.6 and 5 μm C-18 reverse phase column with 1% TFA mobile phase in acetonitrile (ACN) gradient elution. Absorption was monitored at 425 nm, HPLC peaks were quantified using a standard curve, and picomoles of compound per million cells was calculated.

By inhibition is commonly meant the share of the control response that was lost under treatment. What is called IC50 is the concentration that gives 50% inhibition. A lower IC50 goes with higher potency.

T1 sequence (P12956 whole entry): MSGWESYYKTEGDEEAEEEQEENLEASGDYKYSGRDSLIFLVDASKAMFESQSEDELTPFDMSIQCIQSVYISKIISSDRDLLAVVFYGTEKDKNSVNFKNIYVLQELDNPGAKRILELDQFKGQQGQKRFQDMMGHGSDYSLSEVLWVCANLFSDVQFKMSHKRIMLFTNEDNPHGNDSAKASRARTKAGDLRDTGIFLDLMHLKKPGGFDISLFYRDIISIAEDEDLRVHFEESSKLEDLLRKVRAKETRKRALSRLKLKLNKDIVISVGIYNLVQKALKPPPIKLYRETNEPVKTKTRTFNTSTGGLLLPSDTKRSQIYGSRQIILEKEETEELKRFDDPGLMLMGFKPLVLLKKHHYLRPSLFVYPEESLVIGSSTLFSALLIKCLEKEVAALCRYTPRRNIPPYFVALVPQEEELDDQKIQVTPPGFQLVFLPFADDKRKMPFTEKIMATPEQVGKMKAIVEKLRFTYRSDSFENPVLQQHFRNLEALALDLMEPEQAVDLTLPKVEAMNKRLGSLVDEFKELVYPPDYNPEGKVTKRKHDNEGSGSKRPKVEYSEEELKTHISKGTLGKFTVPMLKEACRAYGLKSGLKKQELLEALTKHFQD
T1 sequence (P13010 whole entry): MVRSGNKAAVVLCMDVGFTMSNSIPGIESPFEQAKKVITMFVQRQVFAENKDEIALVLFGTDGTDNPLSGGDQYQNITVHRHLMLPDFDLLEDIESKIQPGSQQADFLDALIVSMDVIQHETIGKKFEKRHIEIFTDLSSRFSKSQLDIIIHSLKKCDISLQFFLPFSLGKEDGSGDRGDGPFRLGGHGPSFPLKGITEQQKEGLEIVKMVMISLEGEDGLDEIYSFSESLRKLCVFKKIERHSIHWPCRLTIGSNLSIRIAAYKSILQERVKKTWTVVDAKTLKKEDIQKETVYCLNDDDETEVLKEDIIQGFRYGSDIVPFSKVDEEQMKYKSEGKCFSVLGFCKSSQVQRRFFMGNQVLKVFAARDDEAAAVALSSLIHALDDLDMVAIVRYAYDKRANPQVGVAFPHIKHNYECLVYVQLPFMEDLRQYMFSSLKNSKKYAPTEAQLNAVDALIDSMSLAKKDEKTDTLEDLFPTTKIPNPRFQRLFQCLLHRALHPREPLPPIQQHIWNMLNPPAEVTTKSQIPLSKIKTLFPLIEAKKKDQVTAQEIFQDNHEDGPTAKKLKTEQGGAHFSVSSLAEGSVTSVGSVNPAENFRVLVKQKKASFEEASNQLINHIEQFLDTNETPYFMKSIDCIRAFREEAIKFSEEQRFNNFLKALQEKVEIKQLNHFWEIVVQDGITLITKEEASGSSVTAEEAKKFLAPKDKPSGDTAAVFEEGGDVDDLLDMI

As to `COc1ccc(-c2ccc(/C=C3\C(=O)N(c4cccc(C(=O)O)c4)c4ccccc43)o2)cc1C(=O)Nc1cccc(OC(F)(F)F)c1` [GL-3392], the “Type of interaction with bleomycin (HSA and Bliss models)” value in [1] (H460, 3392 combined with bleomycin) is listed as “additive interaction”. Moreover, in data set [1] (Homo sapiens, NCI-H460, H460, bleomycin 0 μM, GL-3392 5 μM, read-out: Response matrix for inhibition), the inhibition at 5 µM amounted to 34%. Also, the inhibition at 10 µM in [1] (Homo sapiens, NCI-H460, H460, bleomycin 0 μM, GL-3392 10 μM, read-out: Response matrix for inhibition) came to 78.9%. The inhibition at 15 µM in data set [1] (Homo sapiens, NCI-H460, H460, bleomycin 0 μM, GL-3392 15 μM, read-out: Response matrix for inhibition) was found to be 79.8%. The “Change in sensitivity to bleomycin” value was “increase in sensitivity” in data set [2] and “decrease in sensitivity to bleomycin” in data set [3]. In addition, in data set [4], the IC50 worked out at 4.15 ± 1.07 µM. Further, the “Ku-DBi-dependent change in sensitivity to bleomycin” value in [5] was “did not increase sensitivity”; in [6], “increases in the sensitivity to bleomycin were only observed in Ku wild-type cells”. Besides, the “Sensitivity in combination with IR, clonogenic survival” value is “increased sensitivity when combined with a 2 Gy radiation dose” in data set [7]; “minimal, statistically insignificant effect” in data set [8] (ATM-null H23, 2 Gy); “significantly sensitized” in data set [8] (ATM-null H23, 5 Gy). Also, the “Uptake time course, initial rate and steady-state uptake” value in [9] is listed as “higher cellular levels than 3395”. In data set [9] (media with 10% FBS), the “Cellular uptake, fold more efficient than methoxy-derivatives 3395 and 3649” value was ~ 3 fold.

For the origin of these results see PMC11475570, “Impact of Optimized Ku–DNA Binding Inhibitors on the Cellular and In Vivo DNA Damage Response” (Cancers, 2024).
